Values of other authors in patent US11759447B1, “Compound and method for treating diseases and disorders” (RCR BIOPHARMA, priority 2019, dated 2023).

What was measured:
[1] = oral forms such as CBD treats
dogs [2] = details: high levels of hemp-derived CBD (<0.3% THC)
dogs [3] = details: IV
dogs [4] = test system: dogs

Compound: C=C(C)[C@@H]1CCC(C)=C[C@H]1c1c(O)cc(CCCCC)cc1O [CBD, Cannabidiol]
- fraction of orally administered CBD ultimately absorbed, on average [1]: 5-10%
- dogs with ataxia (dogs [2]): 2 of the 10

Compound: CCCCCc1cc(O)c2c(c1)OC(C)(C)[C@@H]1CCC(C)=C[C@@H]21 [THC, Δ-9-tetrahydrocannabinol]
- dose causing Static Ataxia (dogs [3]): > 0.5 mg/kg

Compound: COc1cccc(C2(O)CCCCC2CN(C)C)c1 (stereo not shown) [tramadol, Tramadol]
- peak vertical force or vertical impulse versus placebo (dogs [4]): no improvement
